In patent US20120122860A1, “SOLID FORMS OF SULFONAMIDES AND AMINO ACIDS” (Plexxikon, Inc., priority 2009, published 2012):

Assays:
B-Raf V600E = B-Raf V600E (Homo sapiens, UniProt P15056, V600E); experiment: Kinase activity assay, B-Raf V600E; format: biochemical; conditions: read-out: activity toward kinase B-Raf V600E, IC50
Kdr = Kdr (Homo sapiens, UniProt P35968); experiment: Kinase activity assay, Kdr
A-Raf = target: T1, A-Raf (Homo sapiens, UniProt P10398); experiment: Kinase activity assay, A-Raf
T1 sequence (P10398 1-606): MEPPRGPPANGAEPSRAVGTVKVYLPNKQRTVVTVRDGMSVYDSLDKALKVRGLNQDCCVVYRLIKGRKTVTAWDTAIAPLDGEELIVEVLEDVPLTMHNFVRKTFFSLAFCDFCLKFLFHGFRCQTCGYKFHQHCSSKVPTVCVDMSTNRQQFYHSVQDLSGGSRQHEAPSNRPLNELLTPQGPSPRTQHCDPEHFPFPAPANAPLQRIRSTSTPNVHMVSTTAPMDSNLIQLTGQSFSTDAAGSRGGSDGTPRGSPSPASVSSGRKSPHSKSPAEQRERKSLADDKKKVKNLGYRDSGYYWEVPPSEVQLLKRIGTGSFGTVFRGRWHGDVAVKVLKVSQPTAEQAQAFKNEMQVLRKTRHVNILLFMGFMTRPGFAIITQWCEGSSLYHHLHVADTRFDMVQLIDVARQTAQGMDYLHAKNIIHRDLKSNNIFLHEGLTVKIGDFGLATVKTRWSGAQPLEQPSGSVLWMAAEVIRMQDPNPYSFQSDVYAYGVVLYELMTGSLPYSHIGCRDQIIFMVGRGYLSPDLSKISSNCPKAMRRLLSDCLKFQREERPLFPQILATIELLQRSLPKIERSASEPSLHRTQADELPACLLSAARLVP

C-Raf = C-Raf (Homo sapiens, UniProt P04049); experiment: Kinase activity assay, C-Raf
Chain of C-Raf (P04049 whole entry): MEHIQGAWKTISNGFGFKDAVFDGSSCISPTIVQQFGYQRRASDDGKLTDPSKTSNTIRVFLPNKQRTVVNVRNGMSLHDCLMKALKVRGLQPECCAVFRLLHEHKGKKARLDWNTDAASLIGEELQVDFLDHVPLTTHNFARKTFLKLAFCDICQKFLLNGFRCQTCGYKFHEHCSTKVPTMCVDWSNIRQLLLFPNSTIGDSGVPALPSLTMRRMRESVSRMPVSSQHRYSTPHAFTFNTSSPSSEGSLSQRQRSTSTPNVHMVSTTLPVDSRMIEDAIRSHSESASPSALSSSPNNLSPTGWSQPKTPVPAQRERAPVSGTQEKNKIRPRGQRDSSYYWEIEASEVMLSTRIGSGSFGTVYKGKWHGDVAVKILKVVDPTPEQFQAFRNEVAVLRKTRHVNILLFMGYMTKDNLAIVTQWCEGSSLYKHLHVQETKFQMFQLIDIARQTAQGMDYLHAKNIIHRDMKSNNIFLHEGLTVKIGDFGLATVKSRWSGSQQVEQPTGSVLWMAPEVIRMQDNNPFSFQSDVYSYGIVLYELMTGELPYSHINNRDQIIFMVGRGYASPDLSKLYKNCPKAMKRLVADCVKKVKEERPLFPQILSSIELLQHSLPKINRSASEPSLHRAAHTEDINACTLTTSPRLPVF

MAP4K4 = MAP4K4 (Homo sapiens, UniProt O95819); experiment: Kinase activity assay, MAP4K4
Chain of MAP4K4 (O95819 whole entry): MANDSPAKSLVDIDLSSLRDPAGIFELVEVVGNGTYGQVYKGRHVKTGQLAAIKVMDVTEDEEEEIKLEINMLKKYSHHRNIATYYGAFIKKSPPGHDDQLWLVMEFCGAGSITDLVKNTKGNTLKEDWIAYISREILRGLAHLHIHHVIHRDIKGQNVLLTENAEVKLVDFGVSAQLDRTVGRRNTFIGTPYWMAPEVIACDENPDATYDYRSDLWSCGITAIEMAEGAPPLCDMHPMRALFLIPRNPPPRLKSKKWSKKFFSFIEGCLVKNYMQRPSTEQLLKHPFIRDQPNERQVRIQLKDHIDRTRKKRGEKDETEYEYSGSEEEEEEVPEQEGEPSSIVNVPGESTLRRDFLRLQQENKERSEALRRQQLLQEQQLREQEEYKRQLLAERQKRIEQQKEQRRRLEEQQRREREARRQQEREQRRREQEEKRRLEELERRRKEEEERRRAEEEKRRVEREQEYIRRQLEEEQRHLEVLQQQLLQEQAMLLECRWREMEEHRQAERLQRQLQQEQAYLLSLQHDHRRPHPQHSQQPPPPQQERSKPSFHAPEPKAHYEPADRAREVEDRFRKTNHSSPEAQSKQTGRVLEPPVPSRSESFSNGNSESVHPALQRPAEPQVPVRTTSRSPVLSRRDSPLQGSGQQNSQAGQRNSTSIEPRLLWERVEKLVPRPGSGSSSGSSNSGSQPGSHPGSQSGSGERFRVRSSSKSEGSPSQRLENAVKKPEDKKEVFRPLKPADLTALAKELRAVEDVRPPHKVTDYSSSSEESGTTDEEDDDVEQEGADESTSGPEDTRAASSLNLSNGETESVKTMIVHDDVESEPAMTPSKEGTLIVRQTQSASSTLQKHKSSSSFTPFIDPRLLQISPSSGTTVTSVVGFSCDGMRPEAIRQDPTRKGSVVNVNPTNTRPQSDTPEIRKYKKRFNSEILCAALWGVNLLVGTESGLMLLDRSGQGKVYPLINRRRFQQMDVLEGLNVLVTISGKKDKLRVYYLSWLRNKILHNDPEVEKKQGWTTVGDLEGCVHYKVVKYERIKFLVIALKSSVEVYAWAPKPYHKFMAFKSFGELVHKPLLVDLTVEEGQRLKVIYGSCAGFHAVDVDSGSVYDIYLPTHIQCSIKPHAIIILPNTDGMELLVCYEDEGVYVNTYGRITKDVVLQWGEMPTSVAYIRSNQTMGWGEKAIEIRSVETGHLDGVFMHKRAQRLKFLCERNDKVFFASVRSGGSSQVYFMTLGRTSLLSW

B-Raf = B-Raf (Homo sapiens, UniProt P15056); experiment: Kinase activity assay, B-Raf; format: biochemical; conditions: read-out: activity toward kinase B-Raf, IC50
Chain of B-Raf (P15056 whole entry): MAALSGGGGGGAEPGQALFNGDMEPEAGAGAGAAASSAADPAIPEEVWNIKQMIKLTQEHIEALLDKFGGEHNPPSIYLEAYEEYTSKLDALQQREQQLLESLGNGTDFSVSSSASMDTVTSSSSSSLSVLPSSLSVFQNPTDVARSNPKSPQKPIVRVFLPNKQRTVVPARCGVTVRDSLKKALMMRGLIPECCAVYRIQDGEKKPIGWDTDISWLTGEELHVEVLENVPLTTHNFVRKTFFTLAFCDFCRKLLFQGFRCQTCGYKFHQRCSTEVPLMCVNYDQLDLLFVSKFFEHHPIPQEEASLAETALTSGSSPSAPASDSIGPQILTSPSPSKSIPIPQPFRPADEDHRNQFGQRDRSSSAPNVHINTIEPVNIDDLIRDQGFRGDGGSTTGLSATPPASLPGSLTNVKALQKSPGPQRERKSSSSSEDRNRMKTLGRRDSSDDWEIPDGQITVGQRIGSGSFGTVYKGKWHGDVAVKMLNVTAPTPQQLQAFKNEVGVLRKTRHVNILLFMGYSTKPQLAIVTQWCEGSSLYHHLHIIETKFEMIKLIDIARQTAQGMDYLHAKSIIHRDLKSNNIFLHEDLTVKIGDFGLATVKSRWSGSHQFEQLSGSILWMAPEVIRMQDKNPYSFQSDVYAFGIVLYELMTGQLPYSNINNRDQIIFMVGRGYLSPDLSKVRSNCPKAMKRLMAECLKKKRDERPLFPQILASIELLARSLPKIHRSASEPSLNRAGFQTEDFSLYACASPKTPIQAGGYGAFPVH

Kit = Kit (Homo sapiens, UniProt P10721); experiment: Kinase activity assay, Kit
Fms = Fms (Homo sapiens, UniProt P07333); experiment: Kinase activity assay, Fms
Chain of Fms (P07333 20-972): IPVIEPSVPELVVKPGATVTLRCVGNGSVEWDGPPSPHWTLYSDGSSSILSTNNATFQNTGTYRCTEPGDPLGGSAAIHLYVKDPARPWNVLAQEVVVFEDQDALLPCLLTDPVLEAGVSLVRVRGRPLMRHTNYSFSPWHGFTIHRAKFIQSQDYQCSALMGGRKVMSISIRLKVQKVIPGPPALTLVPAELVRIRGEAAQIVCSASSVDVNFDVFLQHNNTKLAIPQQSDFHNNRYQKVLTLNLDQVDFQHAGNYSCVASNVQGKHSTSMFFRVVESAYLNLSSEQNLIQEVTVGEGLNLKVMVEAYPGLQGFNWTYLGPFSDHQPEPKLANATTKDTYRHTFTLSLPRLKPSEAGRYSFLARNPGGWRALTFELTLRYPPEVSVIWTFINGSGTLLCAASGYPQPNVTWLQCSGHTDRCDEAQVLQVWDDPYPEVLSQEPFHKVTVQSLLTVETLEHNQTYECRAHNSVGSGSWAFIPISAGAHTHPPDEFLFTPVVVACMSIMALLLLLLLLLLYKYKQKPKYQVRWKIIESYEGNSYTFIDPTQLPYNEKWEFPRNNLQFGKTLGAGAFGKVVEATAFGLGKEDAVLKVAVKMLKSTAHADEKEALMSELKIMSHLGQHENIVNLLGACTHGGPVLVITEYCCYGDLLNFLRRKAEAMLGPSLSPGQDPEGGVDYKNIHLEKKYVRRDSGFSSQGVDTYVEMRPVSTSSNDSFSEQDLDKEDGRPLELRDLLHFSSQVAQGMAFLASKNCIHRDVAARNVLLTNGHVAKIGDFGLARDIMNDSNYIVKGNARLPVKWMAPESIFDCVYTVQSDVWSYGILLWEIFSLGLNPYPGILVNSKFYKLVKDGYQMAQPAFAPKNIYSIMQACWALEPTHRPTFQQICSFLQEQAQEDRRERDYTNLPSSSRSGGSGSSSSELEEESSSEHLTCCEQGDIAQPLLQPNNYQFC

Src = Src (Homo sapiens, UniProt P12931); experiment: Kinase activity assay, Src

Measured: IC50

Chain of Kdr (P35968 20-1356): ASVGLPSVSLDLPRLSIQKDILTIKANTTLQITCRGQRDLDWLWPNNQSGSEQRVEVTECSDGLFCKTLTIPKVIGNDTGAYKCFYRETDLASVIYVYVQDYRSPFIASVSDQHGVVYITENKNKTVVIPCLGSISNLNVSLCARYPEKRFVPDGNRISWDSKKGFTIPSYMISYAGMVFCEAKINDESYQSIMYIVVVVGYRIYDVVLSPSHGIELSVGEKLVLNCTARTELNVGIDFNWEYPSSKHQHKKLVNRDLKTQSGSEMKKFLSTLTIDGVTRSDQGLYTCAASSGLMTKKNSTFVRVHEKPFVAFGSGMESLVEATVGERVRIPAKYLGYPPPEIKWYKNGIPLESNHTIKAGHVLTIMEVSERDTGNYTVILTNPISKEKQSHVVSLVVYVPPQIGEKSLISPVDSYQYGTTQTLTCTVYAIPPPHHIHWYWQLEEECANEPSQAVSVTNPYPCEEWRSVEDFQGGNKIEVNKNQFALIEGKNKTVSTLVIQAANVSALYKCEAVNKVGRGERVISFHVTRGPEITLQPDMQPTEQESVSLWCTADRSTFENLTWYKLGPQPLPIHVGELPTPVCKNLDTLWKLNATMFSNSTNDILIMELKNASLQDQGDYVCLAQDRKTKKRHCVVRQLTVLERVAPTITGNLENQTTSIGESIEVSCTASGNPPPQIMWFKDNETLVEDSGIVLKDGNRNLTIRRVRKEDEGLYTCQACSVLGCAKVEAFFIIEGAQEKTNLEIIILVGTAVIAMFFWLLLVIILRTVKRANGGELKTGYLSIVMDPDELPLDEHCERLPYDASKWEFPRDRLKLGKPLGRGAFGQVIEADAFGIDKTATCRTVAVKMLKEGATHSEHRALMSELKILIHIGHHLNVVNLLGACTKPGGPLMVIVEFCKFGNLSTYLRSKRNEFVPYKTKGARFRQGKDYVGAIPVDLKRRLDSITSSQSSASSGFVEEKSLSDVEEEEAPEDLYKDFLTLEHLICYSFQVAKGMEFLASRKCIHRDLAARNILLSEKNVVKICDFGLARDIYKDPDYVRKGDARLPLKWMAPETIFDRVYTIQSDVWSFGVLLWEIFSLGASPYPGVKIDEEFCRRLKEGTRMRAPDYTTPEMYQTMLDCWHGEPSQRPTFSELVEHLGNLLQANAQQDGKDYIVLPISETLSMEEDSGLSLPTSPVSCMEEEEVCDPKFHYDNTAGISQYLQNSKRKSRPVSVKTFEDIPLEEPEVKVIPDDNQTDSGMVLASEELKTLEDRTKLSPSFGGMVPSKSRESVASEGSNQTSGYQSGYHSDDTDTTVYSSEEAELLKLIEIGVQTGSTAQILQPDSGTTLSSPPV
Chain of B-Raf V600E (P15056 whole entry V600E): as the sequence (P15056 whole entry) above, with V600E counted along it

N#Cc1cnc2[nH]cc(C(=O)c3c(F)ccc(NS(=O)(=O)c4ncn[nH]4)c3F)c2c1 [P-2064, 2H-[1,2,4]Triazole-3-sulfonic acid [3-(5-cyano-1H-pyrrolo[2,3-b]pyridine-3-carbonyl)-2,4-difluoro-phenyl]-amide]
≤ 10 µM: B-Raf V600E | Kdr | A-Raf | C-Raf | MAP4K4

O=C(c1c(F)ccc(NS(=O)(=O)c2ncn[nH]2)c1F)c1c[nH]c2nccc(Cl)c12 [P-2066, 2H-[1,2,4]Triazole-3-sulfonic acid [3-(4-chloro-1H-pyrrolo[2,3-b]pyridine-3-carbonyl)-2,4-difluoro-phenyl]-amide]
not listed: Kit | Fms | Src
≤ 10 µM: all other assays above

CCCS(=O)(=O)Nc1ccc(F)c(C(=O)c2c[nH]c3ncc(C(F)(F)F)cc23)c1F [P-2182, Propane-1-sulfonic acid [2,4-difluoro-3-(5-trifluoromethyl-1H-pyrrolo[2,3-b]pyridine-3-carbonyl)-phenyl]-amide]
not listed: Fms | Src
≤ 10 µM: all other assays above

CCCS(=O)(=O)Nc1ccc(F)c(C(=O)c2c[nH]c3ncc(CN4CCOCC4)cc23)c1F [P-2244, Propane-1-sulfonic acid [2,4-difluoro-3-(5-morpholin-4-ylmethyl-1H-pyrrolo[2,3-b]pyridine-3-carbonyl)-phenyl]-amide]
≤ 10 µM: B-Raf | B-Raf V600E | A-Raf | C-Raf | MAP4K4

COc1cnc2[nH]cc(C(=O)c3c(F)ccc(NS(=O)(=O)C(C)C)c3F)c2c1 [P-2273, Propane-2-sulfonic acid [2,4-difluoro-3-(5-methoxy-1H-pyrrolo[2,3-b]pyridine-3-carbonyl)-phenyl]-amide]
not listed: MAP4K4
≤ 10 µM: all other assays above

CCS(=O)(=O)Nc1ccc(F)c(C(=O)c2c[nH]c3ncc(Cl)cc23)c1F [P-2274, Ethanesulfonic acid [3-(5-chloro-1H-pyrrolo[2,3-b]pyridine-3-carbonyl)-2,4-difluoro-phenyl]-amide]
not listed: Fms | Src
≤ 10 µM: all other assays above

COc1cnc2[nH]cc(C(=O)c3c(F)ccc(NS(C)(=O)=O)c3F)c2c1 [P-2288, N-[2,4-Difluoro-3-(5-methoxy-1H-pyrrolo[2,3-b]pyridine-3-carbonyl)-phenyl]-methanesulfonamide]
not listed: B-Raf | Fms | Src
≤ 10 µM: all other assays above

Cc1cnc2[nH]cc(C(=O)c3c(F)ccc(NS(C)(=O)=O)c3F)c2c1 [P-2289, N-[2,4-Difluoro-3-(5-methyl-1H-pyrrolo[2,3-b]pyridine-3-carbonyl)-phenyl]-methanesulfonamide]
not listed: B-Raf | Fms | Src
≤ 10 µM: all other assays above

CS(=O)(=O)Nc1ccc(F)c(C(=O)c2c[nH]c3ncc(Cl)cc23)c1F [P-2291, N-[3-(5-Chloro-1H-pyrrolo[2,3-b]pyridine-3-carbonyl)-2,4-difluoro-phenyl]-methanesulfonamide]
not listed: B-Raf | Fms | Src
≤ 10 µM: all other assays above

CC(C)CS(=O)(=O)Nc1ccc(F)c(C(=O)c2c[nH]c3ncc(Cl)cc23)c1F [P-2304, 2-Methyl-propane-1-sulfonic acid [3-(5-chloro-1H-pyrrolo[2,3-b]pyridine-3-carbonyl)-2,4-difluoro-phenyl]-amide]
not listed: MAP4K4
≤ 10 µM: all other assays above

O=C(c1c(F)ccc(NS(=O)(=O)C(F)(F)F)c1F)c1c[nH]c2ncc(-c3ccc(Cl)cc3)cc12 [P-2343, N-{3-[5-(4-Chloro-phenyl)-1H-pyrrolo[2,3-b]pyridine-3-carbonyl]-2,4-difluoro-phenyl}-C,C,C-trifluoro-methanesulfonamide]
not listed: MAP4K4
≤ 10 µM: all other assays above

Cc1cnc2[nH]cc(C(=O)c3c(F)ccc(NS(=O)(=O)C4CCC4)c3F)c2c1 [P-2362, Cyclobutanesulfonic acid [2,4-difluoro-3-(5-methyl-1H-pyrrolo[2,3-b]pyridine-3-carbonyl)-phenyl]-amide]
≤ 10 µM: B-Raf V600E | Kdr | A-Raf | C-Raf | MAP4K4

N#Cc1cnc2[nH]cc(C(=O)c3c(F)ccc(NS(=O)(=O)C4CCCCC4)c3F)c2c1 [P-2366, Cyclohexanesulfonic acid [3-(5-cyano-1H-pyrrolo[2,3-b]pyridine-3-carbonyl)-2,4-difluoro-phenyl]-amide]
not listed: Kdr | Fms | Src
≤ 10 µM: all other assays above

O=C(c1c(F)ccc(NS(=O)(=O)N2CCOCC2)c1F)c1c[nH]c2ncc(Cl)cc12 [P-2390, Morpholine-4-sulfonic acid [3-(5-chloro-1H-pyrrolo[2,3-b]pyridine-3-carbonyl)-2,4-difluoro-phenyl]-amide]
not listed: C-Raf | MAP4K4 | B-Raf
≤ 10 µM: all other assays above
